Results from patent publication US11649255B2, “Indazoles as hematopoietic progenitor kinase 1 (HPK1) inhibitors and methods using same” (1st Biotherapeutics, Inc., priority 2020, dated 2023).

Biological target: recombinant human HPK1 (Homo sapiens (Human), UniProt Q92918)
Test: HPK1 kinase assay (ADP-Glo)
Type: biochemical
Conditions: 25 μM ATP, MBP substrate
Description: HPK1 kinase activity was measured by Promega's ADP-Glo™ kinase assay. In this assay, 5 ng of recombinant human HPK1 (signalchem) is incubated with 5 μL of compounds (0.5% DMSO), 5 μL of MBP (0.5 μg/μl) and 5 μL of ATP (25 μM) in buffer (40 mM Tris, 7.5; 20 mM MgCl2; 0.1 mg/ml BSA; 5 μM DTT). The assay was started by incubating the reaction mixture in a 96-well plate at 30′ C for 40 minutes. After the incubation, 25 uL ADP-Glo reagent was added and the reaction was incubated at room temperature for 40-min to stop the reaction and degrade residual ATP. The ADP product was then converted to ATP by adding 50 uL per well of detection reagent. Luminescence was detected after 30-min room temperature incubation with the Molecular device I3X plate reader. The IC50 values were calculated from a series of percent inhibition values determined at a range of inhibitor concentration using software routines as implemented in the GraphPad Prism 7 software and SigmaPlot13.0.

Sequence of recombinant human HPK1 (Q92918 whole entry): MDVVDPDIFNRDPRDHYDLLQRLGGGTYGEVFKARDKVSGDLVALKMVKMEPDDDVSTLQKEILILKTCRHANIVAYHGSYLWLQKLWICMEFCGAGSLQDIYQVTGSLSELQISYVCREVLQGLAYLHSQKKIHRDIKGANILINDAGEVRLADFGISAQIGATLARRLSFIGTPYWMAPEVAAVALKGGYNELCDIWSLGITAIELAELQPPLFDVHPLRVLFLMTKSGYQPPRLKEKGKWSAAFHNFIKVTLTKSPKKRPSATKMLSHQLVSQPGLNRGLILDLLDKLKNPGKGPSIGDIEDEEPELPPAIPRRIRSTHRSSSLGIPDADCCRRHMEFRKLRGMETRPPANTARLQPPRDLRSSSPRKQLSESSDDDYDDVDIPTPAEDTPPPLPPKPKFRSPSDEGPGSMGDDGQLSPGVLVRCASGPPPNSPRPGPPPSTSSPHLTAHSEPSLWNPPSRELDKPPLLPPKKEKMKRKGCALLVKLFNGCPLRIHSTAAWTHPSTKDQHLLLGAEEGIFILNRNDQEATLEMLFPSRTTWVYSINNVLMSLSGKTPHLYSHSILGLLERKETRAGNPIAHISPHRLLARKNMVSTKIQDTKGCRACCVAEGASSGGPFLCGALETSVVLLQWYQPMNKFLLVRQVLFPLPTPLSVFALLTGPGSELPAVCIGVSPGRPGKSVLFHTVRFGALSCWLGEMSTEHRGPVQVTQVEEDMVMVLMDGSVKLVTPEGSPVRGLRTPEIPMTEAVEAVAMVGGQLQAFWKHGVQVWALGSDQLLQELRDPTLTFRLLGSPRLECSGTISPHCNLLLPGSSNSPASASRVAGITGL

IC50 [nM]	SMILES
101 to 500	Cc1ccc2[nH]ncc2c1-c1ccc2nc(NC(=O)C3CC3)sc2c1 [Example 1, N-(6-(5-methyl-1H-indazol-4-yl)benzo[d]thiazol-2-yl)cyclopropanecarboxamide]
101 to 500	Cc1ccc2[nH]ncc2c1-c1ccc2nc(NC(=O)[C@@H]3C[C@@H]3F)sc2c1 [Example 2, (1S,2S)-2-fluoro-N-(6-(5-methyl-1H-indazol-4-yl)benzo[d]thiazol-2-yl)cyclopropane-1-carboxamide]
> 1000	Cc1ccc2[nH]ncc2c1-c1ccc2nc(NC(=O)OC(C)(C)C)sc2c1 [Example 3, tert-butyl (6-(5-methyl-1H-indazol-4-yl)benzo[d]thiazol-2-yl)carbamate]
501 to 1000	Cc1ccc2[nH]ncc2c1-c1ccc2nc(NC(=O)C3CCC3)sc2c1 [Example 4, N-(6-(5-methyl-1H-indazol-4-yl)benzo[d]thiazol-2-yl)cyclobutanecarboxamide]
101 to 500	Cc1ccc2[nH]ncc2c1-c1ccc2nc(NC(=O)C3CC3(F)F)sc2c1 (centres unmarked) [Example 5, 2,2-difluoro-N-(6-(5-methyl-1H-indazol-4-yl)benzo[d]thiazol-2-yl)cyclopropane-1-carboxamide]
101 to 500	Cc1ccc2[nH]ncc2c1-c1ccc2nc(NC(=O)C3CC(F)C3)sc2c1 [Example 6, (1S,3S)-3-fluoro-N-(6-(5-methyl-1H-indazol-4-yl)benzo[d]thiazol-2-yl)cyclobutane-1-carboxamide]
101 to 500	Cc1ccc2[nH]ncc2c1-c1ccc2nc(NC(=O)C3CC(F)C3)sc2c1 [Example 7, (1R,3R)-3-fluoro-N-(6-(5-methyl-1H-indazol-4-yl)benzo[d]thiazol-2-yl)cyclobutane-1-carboxamide]
> 1000	Cc1ccc2[nH]ncc2c1-c1ccc2nc(NC(=O)c3ccccc3)sc2c1 [Example 8, N-(6-(5-methyl-1H-indazol-4-yl)benzo[d]thiazol-2-yl)benzamide]
> 1000	CCCCC(=O)Nc1nc2ccc(-c3c(C)ccc4[nH]ncc34)cc2s1 [Example 9, N-(6-(5-methyl-1H-indazol-4-yl)benzo[d]thiazol-2-yl)pentanamide]
> 1000	Cc1ccc2[nH]ncc2c1-c1ccc2nc(NC(=O)C3CCCC3)sc2c1 [Example 10, N-(6-(5-methyl-1H-indazol-4-yl)benzo[d]thiazol-2-yl)cyclopentanecarboxamide]
501 to 1000	Cc1ccc2[nH]ncc2c1-c1ccc2nc(NC(=O)C3CC(F)(F)C3)sc2c1 [Example 11, 3,3-difluoro-N-(6-(5-methyl-1H-indazol-4-yl)benzo[d]thiazol-2-yl)cyclobutane-1-carboxamide]
> 1000	Cc1ccc2[nH]ncc2c1-c1ccc2nc(NC(=O)c3ccccn3)sc2c1 [Example 12, N-(6-(5-methyl-1H-indazol-4-yl)benzo[d]thiazol-2-yl)picolinamide]
> 1000	O=C(Nc1nc2ccc(-c3c(-c4cccs4)ccc4[nH]ncc34)cc2s1)C1CC1 [Example 13, N-(6-(5-(thiophen-2-yl)-1H-indazol-4-yl)benzo[d]thiazol-2-yl)cyclopropanecarboxamide]
> 1000	O=C(Nc1nc2ccc(-c3cccc4[nH]ncc34)cc2s1)C1CC1 [Example 14, N-(6-(1H-indazol-4-yl)benzo[d]thiazol-2-yl)cyclopropanecarboxamide]
101 to 500	O=C(Nc1nc2ccc(-c3c(F)ccc4[nH]ncc34)cc2s1)C1CC1 [Example 15, N-(6-(5-fluoro-1H-indazol-4-yl)benzo[d]thiazol-2-yl)cyclopropanecarboxamide]
101 to 500	O=C(Nc1nc2ccc(-c3c(Cl)ccc4[nH]ncc34)cc2s1)C1CC1 [Example 16, N-(6-(5-chloro-1H-indazol-4-yl)benzo[d]thiazol-2-yl)cyclopropanecarboxamide]
101 to 500	O=C(Nc1nc2ccc(-c3c(C(F)(F)F)ccc4[nH]ncc34)cc2s1)C1CC1 [Example 17, N-(6-(5-(trifluoromethyl)-1H-indazol-4-yl)benzo[d]thiazol-2-yl)cyclopropanecarboxamide]
> 1000	O=C(Nc1nc2ccc(-c3c(-c4ccsc4)ccc4[nH]ncc34)cc2s1)C1CC1 [Example 18, N-(6-(5-(thiophen-3-yl)-1H-indazol-4-yl)benzo[d]thiazol-2-yl)cyclopropanecarboxamide]
> 1000	O=C(Nc1nc2ccc(-c3ccc(Cl)c4[nH]ncc34)cc2s1)C1CC1 [Example 19, N-(6-(7-chloro-1H-indazol-4-yl)benzo[d]thiazol-2-yl)cyclopropanecarboxamide]

IC50 [nM]	SMILES
> 1000	O=C(Nc1nc2ccc(-c3cc(Cl)cc4[nH]ncc34)cc2s1)C1CC1 [Example 20, N-(6-(6-chloro-1H-indazol-4-yl)benzo[d]thiazol-2-yl)cyclopropanecarboxamide]
> 1000	CC(C)(C)OC(=O)c1ccc2[nH]ncc2c1-c1ccc2nc(NC(=O)C3CC3)sc2c1 [Example 21, tert-butyl 4-(2-(cyclopropanecarboxamido)benzo[d]thiazol-6-yl)-1H-indazole-5-carboxylate]
> 1000	O=C(Nc1nc2ccc(-c3cc(-c4cccs4)cc4[nH]ncc34)cc2s1)C1CC1 [Example 22, N-(6-(6-(thiophen-2-yl)-1H-indazol-4-yl)benzo[d]thiazol-2-yl)cyclopropanecarboxamide]
> 1000	O=C(NCc1ccsc1)c1ccc2[nH]ncc2c1-c1ccc2nc(NC(=O)C3CC3)sc2c1 [Example 23, 4-(2-(cyclopropanecarboxamido)benzo[d]thiazol-6-yl)-N-(thiophen-3-ylmethyl)-1H-indazole-5-carboxamide]
101 to 500	COc1ccc2[nH]ncc2c1-c1ccc2nc(NC(=O)C3CC3)sc2c1 [Example 24, N-(6-(5-methoxy-1H-indazol-4-yl)benzo[d]thiazol-2-yl)cyclopropanecarboxamide]
501 to 1000	O=C(Nc1nc2ccc(-c3c(CO)ccc4[nH]ncc34)cc2s1)C1CC1 [Example 25, N-(6-(5-(hydroxymethyl)-1H-indazol-4-yl)benzo[d]thiazol-2-yl)cyclopropanecarboxamide]
> 1000	Cc1ccc2[nH]nc(N)c2c1-c1ccc2nc(NC(=O)C3CC3)sc2c1 [Example 26, N-(6-(3-amino-5-methyl-1H-indazol-4-yl)benzo[d]thiazol-2-yl)cyclopropanecarboxamide]
> 1000	O=C(Nc1nc2ccc(-c3c(O)ccc4[nH]ncc34)cc2s1)C1CC1 [Example 27, N-(6-(5-hydroxy-1H-indazol-4-yl)benzo[d]thiazol-2-yl)cyclopropanecarboxamide]
101 to 500	CCc1ccc2[nH]ncc2c1-c1ccc2nc(NC(=O)C3CC3)sc2c1 [Example 28, N-(6-(5-ethyl-1H-indazol-4-yl)benzo[d]thiazol-2-yl)cyclopropanecarboxamide]
101 to 500	N#Cc1ccc2[nH]ncc2c1-c1ccc2nc(NC(=O)C3CC3)sc2c1 [Example 29, N-(6-(5-cyano-1H-indazol-4-yl)benzo[d]thiazol-2-yl)cyclopropanecarboxamide]
101 to 500	O=C(Nc1nc2ccc(-c3c(Cl)ccc4[nH]ncc34)cc2s1)[C@@H]1C[C@@H]1F [Example 30, (1S,2S)-N-(6-(5-chloro-1H-indazol-4-yl)benzo[d]thiazol-2-yl)-2-fluorocyclopropane-1-carboxamide]
> 1000	CN(C)CCOc1ccc2[nH]ncc2c1-c1ccc2nc(NC(=O)[C@@H]3C[C@@H]3F)sc2c1 [Example 31, (1S,2S)-N-(6-(5-(2-(dimethylamino)ethoxy)-1H-indazol-4-yl)benzo[d]thiazol-2-yl)-2-fluorocyclopropane-1-carboxamide]
101 to 500	Cc1ccc2[nH]ncc2c1-c1ccc2nc(NC(=S)C3CC3)sc2c1 [Example 32, N-(6-(5-methyl-1H-indazol-4-yl)benzo[d]thiazol-2-yl)cyclopropanecarbothioamide]
101 to 500	O=C(Nc1nc2ccc(-c3c(C(F)F)ccc4[nH]ncc34)cc2s1)[C@@H]1C[C@@H]1F [Example 33, (1S,2S)-N-(6-(5-(difluoromethyl)-1H-indazol-4-yl)benzo[d]thiazol-2-yl)-2-fluorocyclopropane-1-carboxamide]
> 1000	COCCOc1ccc2[nH]ncc2c1-c1ccc2nc(NC(=O)[C@@H]3C[C@@H]3F)sc2c1 [Example 34, (1S,2S)-2-fluoro-N-(6-(5-(2-methoxyethoxy)-1H-indazol-4-yl)benzo[d]thiazol-2-yl)cyclopropane-1-carboxamide]
101 to 500	C=Cc1ccc2[nH]ncc2c1-c1ccc2nc(NC(=O)[C@@H]3C[C@@H]3F)sc2c1 [Example 35, (1S,2S)-2-fluoro-N-(6-(5-vinyl-1H-indazol-4-yl)benzo[d]thiazol-2-yl)cyclopropane-1-carboxamide]
101 to 500	O=C(Nc1nc2ccc(-c3c(CF)ccc4[nH]ncc34)cc2s1)[C@@H]1C[C@@H]1F [Example 36, (1S,2S)-2-fluoro-N-(6-(5-(fluoromethyl)-1H-indazol-4-yl)benzo[d]thiazol-2-yl)cyclopropane-1-carboxamide]
101 to 500	O=C(Nc1nc2ccc(-c3c(C4CC4)ccc4[nH]ncc34)cc2s1)[C@@H]1C[C@@H]1F [Example 37, (1S,2S)-N-(6-(5-cyclopropyl-1H-indazol-4-yl)benzo[d]thiazol-2-yl)-2-fluorocyclopropane-1-carboxamide]
> 1000	O=C(Nc1nc2ccc(-c3c(Cn4cccn4)ccc4[nH]ncc34)cc2s1)[C@@H]1C[C@@H]1F [Example 38, (1S,2S)-N-(6-(5-((1H-pyrazol-1-yl)methyl)-1H-indazol-4-yl)benzo[d]thiazol-2-yl)-2-fluorocyclopropane-1-carboxamide]
